Consider 19 molecules from patent US5008268A, “2-aminopyrimidinone derivatives” (Janssen Pharmaceutica N.V., priority 1989, dated 1991).

Assay type in all cases: in vivo
For experiment [1], the system named is peripheral serotonin. The experiment is described as follows: Combined apomorphine, tryptamine and norepinephrine test in rats: tryptamine-induced hyperaemia of the ears. The following applies: Rattus norvegicus, dose protecting half of tested animals from peripheral serotonin-induced phenomena, in particular hyperaemia of the ears. The text has this:
(§1) Int. Pharmacodyn. Ther. 251, 39-51 (1981).
Pharmacodyn, 227, 238-253 (1977). Said test provides an empirical evaluation of the relative specificity with which drugs may effect particular neurotransmitters centrally (CNS) as well as peripherally. […] The ED50 values of the tested compounds are listed in column 3 of table 4 and represent the dose in mg per kg bodyweight which protects half of the tested animals from peripheral serotonin-induced phenomena, in particular hyperaemia of the ears.

Experiment [2] relates to compound 48/80-induced gastric lesions. The experiment is described as follows: Protection of rats from compound 48/80-induced gastric lesions (antiserotoninergic). As to conditions: Rattus norvegicus, dose at which stomach distention and glandular-area lesions are completely absent in half of the rats.
Text: as §1
The ED50 values of the tested compounds are listed in the second column of table 4. Said ED50 values are the doses in mg per kg bodyweight at which the distention of the stomach as well as lesions in the glandular area of the stomach are completely absent in half of the test rats.

Experiment [3] deals with compound 48/80-induced lethality. The experiment can be described thus: Protection of rats from compound 48/80-induced lethality (antihistaminic). The following applies: Rattus norvegicus, dose protecting 50% of tested animals against compound 48/80-induced lethality.
Text: as §1
The ED50 values of the tested compounds of formula (I) are listed in the first column of table 4. Said ED50 values are the values in mg per kg bodyweight at which the tested compounds protect 50% of the tested animals against compound 48/80-induced lethality.

As to `Cc1ccc(Cn2c(NC3CCN(CCc4c(C)nc(NCc5ccccc5)n(C)c4=O)CC3)nc3cccnc32)o1` [Compound 3], the ED50 in experiment [1] turned out to be 0.005 mg/kg; in experiment [2] it was 0.08 mg/kg.
As for `CCCCNc1nc(C)c(CCN2CCC(Nc3nc4cccnc4n3Cc3ccc(C)o3)CC2)c(=O)n1C` [Compound 34], the median effective dose (ED50) was 0.04 mg/kg in experiment [3], 0.02 mg/kg in experiment [1] and 0.08 mg/kg in experiment [2].
For the molecule `Cc1nc(N)n(C)c(=O)c1CCN1CCC(Nc2nc3cccnc3n2Cc2ccc(CO)o2)CC1` [Compound 16], the values for the ED50 in experiment [3], in experiment [1] and in experiment [2] were 0.01 mg/kg, 0.005 mg/kg and 0.16 mg/kg, respectively.
`Cc1nc2n(C)c(C)cn2c(=O)c1CCN1CCC(Nc2nc3ccccc3n2Cc2ccc(CO)o2)CC1` [Compound 71]: the ED50 in experiment [1] turned out to be 0.01 mg/kg; in experiment [2], 0.04 mg/kg.
As to `Cc1nc(NCc2ccccn2)n(C)c(=O)c1CCN1CCC(Cc2nc3ccccc3n2Cc2ccc(F)cc2)CC1` [Compound 21], the median effective dose (ED50) stood at 0.04 mg/kg in experiment [3], 0.01 mg/kg in experiment [1] and 0.08 mg/kg in experiment [2].
Consider `Cc1nc(N)n(C)c(=O)c1CCN1CCC(Nc2nc3ccccc3n2Cc2ccc(F)cc2)CC1` [Compound 7], for which the median effective dose (ED50) amounted to 0.01 mg/kg in experiment [1] and 0.02 mg/kg in experiment [2].
With `CCCNc1nc(C)c(CCN2CCC(Nc3nc4ccccc4n3Cc3ccc(CO)o3)CC2)c(=O)n1C` [Compound 43, 5-[2-[4-[[1-[[5-(hydroxymethyl)-2-furanyl]methyl]-1H-benzimidazol-2-yl]amino]-1-piperidinyl]ethyl]-3,6-dimethyl-2-(propylamino)-4(3H)-pyrimidinone], the 50% effective dose (ED50) in experiment [3] was determined as 0.08 mg/kg; in experiment [1], 0.005 mg/kg; in experiment [2], 0.04 mg/kg.
As for `CCNc1nc(C)c(CCN2CCC(Nc3nc4ccccc4n3Cc3ccc(CO)o3)CC2)c(=O)n1C` [Compound 29], the 50% effective dose (ED50) in experiment [3] stood at 0.08 mg/kg; in experiment [1], 0.005 mg/kg; in experiment [2], 0.16 mg/kg.
On the same counts, the results for `Cc1nc(NCc2ccccn2)n(C)c(=O)c1CCN1CCC(Nc2nc3ccccc3n2Cc2ccc(CO)o2)CC1` [Compound 39] are 0.08 mg/kg, 0.005 mg/kg and 0.04 mg/kg.
On the same counts, the results for `Cc1nc2n(C)c(C)cn2c(=O)c1CCN1CCC(Cc2nc3ccccc3n2Cc2ccc(F)cc2)CC1` [Compound 50] are 0.04 mg/kg, 0.02 mg/kg and 0.16 mg/kg.
Take `Cc1nc2n(C)ccn2c(=O)c1CCN1CCC(Cc2nc3ccccc3n2Cc2ccc(CO)o2)CC1` [Compound 79]: the values for the ED50 in experiment [1] and in experiment [2] were 0.02 mg/kg and 0.04 mg/kg, respectively.
As to `CC1=NN(C)c2nc(C)c(CCN3CCC(Cc4nc5ccccc5n4Cc4ccc(F)cc4)CC3)c(=O)n2C1` [Compound 58], the ED50 in experiment [3] turned out to be 0.04 mg/kg; in experiment [1] it was 0.02 mg/kg; in experiment [2], 0.16 mg/kg.
Consider `Cc1nc2n(C)ccn2c(=O)c1CCN1CCC(Nc2nc3ccccc3n2Cc2ccc(CO)o2)CC1` [Compound 68], for which the 50% effective dose (ED50) in experiment [1] and in experiment [2] was 0.04 mg/kg each time.
On to `Cc1ccc(Cn2c(NC3CCN(CCc4c(C)nc5n(C)nc(C)n5c4=O)CC3)nc3cccnc32)o1` [Compound 67], for which the ED50 in experiment [3] was 0.04 mg/kg; in experiment [1] it was 0.08 mg/kg; in experiment [2] it was 0.08 mg/kg.
As for `Cc1nc2ccccn2c(=O)c1CCN1CCC(Nc2nc3cccnc3n2Cc2ccco2)CC1` [reference, 3-[2-[4-[[3-(2-furanylmethyl)-3H-imidazo[4,5-b]pyridin-2-yl]amino]-1-piperidinyl]ethyl]-2-methyl-4H-pyrido[1,2-a]pyrimidin-4-one, reference compound], the 50% effective dose (ED50) came out at 0.08 mg/kg in experiment [3], 0.63 mg/kg in experiment [1] and 0.63 mg/kg in experiment [2].
With `CNc1nc(C)c(CCN2CCC(Nc3nc4ccccc4n3Cc3ccc(CO)o3)CC2)c(=O)n1C` [Compound 17, 5-[2-[4-[[1-[[5-(hydroxymethyl)-2-furanyl]methyl]-1H-benzimidazol-2-yl]amino]-1-piperidinyl]ethyl]-3,6-dimethyl-2(methylamino)-4(3H)-pyrimidinone], the median effective dose (ED50) in experiment [3] is 0.02 mg/kg; in experiment [1], 0.002 mg/kg; in experiment [2], 0.01 mg/kg.
On the same counts, the results for `CCOCCNc1nc(C)c(CCN2CCC(Nc3nc4ccccc4n3Cc3ccc(CO)o3)CC2)c(=O)n1C` [Compound 30] are 0.04 mg/kg, 0.02 mg/kg and 0.02 mg/kg.
Regarding `Cc1nc(N)n(C)c(=O)c1CCN1CCC(Nc2nc3ccccc3n2Cc2ccc(CO)o2)CC1` [Compound 15, 2-amino-5-[2-[4-[[1-[[5-hydroxymethyl-2-furanyl]methyl]-1H-benzimidazol-2-yl]amino]-1-piperidinyl]ethyl]-3,6-dimethyl-4(3H)-pyrimidinone], the 50% effective dose (ED50) in experiment [3] was determined as 0.02 mg/kg; in experiment [1] it was 0.002 mg/kg; in experiment [2], 0.005 mg/kg.
Take `Cc1nc(N)n(C)c(=O)c1CCN1CCC(Cc2nc3ccccc3n2Cc2ccc(F)cc2)CC1` [Compound 11, 2-amino-5-[2-[4-[[1-[(4-fluorophenyl)methyl]-1H-benzimidazol-2-yl]-methyl]-1-piperidinyl]ethyl]-3,6-dimethyl-4(3H)pyrimidinone]: the figures for the median effective dose (ED50) in experiment [3], in experiment [1] and in experiment [2] were 0.02 mg/kg, 0.005 mg/kg and 0.16 mg/kg, respectively.

What is called ED50 is the dose that gives a 50% effect, or the effect in half of the subjects.
